Consider six compounds from article PMC11897524 (Frontiers in Pharmacology, 2025).

For experiment [1], the target named is T1, STAT3 (Homo sapiens, UniProt P40763). In words: Microscale thermophoresis (MST) assay. Type of experiment: binding. Also on record: purchased Abcam. Particulars: MST. How it is done:
The MST experiments were performed using the Monolith NT.115 instrument. BRD4 and STAT3 proteins were labeled with the Lys labeling kit at the final concentration of 100 nM. The compounds, previously suspended in 100% DMSO, were diluted in a buffer containing 20 mM Tris·HCl (pH 7.5), 100 mM NaCl, and 3 mM DTT, achieving a final DMSO concentration of 5%. The compounds were gradient-diluted in 1:1 dilution and starting from 100 μM. The samples were loaded into MST-standard glass capillaries. All the measurements were performed in triplicate using automatically assigned 50% MST power and 20% LED power. Data analysis was performed using GraphPad Prism 7.0 software.
In general terms: MST reads how a fluorescent partner responds to local heating, with and without ligand.

In experiment [2] the target is T2, BRD4 (Homo sapiens, UniProt O60885). In words: Microscale thermophoresis (MST) assay. The arrangement: purchased Abcam. The note with it: MST. In kind it is binding.
The target in experiment [3] is T1, STAT3. Kind of experiment: STAT3 binding inhibition assay. Also on record: purchased Abcam.
The target in experiment [4] is T2, BRD4. In words: AlphaScreen BRD4 binding inhibition assay. The arrangement: purchased Abcam. In general terms: In Alpha technology, singlet oxygen from a donor bead excites a nearby acceptor bead.
Experimental: The inhibitory effect was measured through the previously described the amplified luminescent proximity homogeneous assay (AlphaScreen) ([Feng et al., 2018]). First, the compounds were diluted twofold to different concentrations (64, 32, 16, 8, 4, 2, 1, 0.5, 0.25, 0.125, 0.0625 nM) and each was incubated with BRD4 protein at a concentration of 12.5 nM for 15 min at room temperature. Biotin-labeled peptide (SGRG-K(Ac)-GG-K(Ac)-GLG-K(Ac)-GGA-K (Ac)-RHRKVGG-K-biotin) was added for 10 min, followed by streptavidin donor beads and AlphaScreen nickel chelate acceptor and incubation for 1h. All components were incubated in a total volume of 20 μL assay buffer containing 20 mM HEPES, pH 7.4, 0.1% bovine serum albumin (BSA, w/v), 0.01% Triton X-100, and 1 mM DTT. Finally, counts were measured by EnVision (Perkin Elmer, Hopkinton, MA) and analyzed by Graphpad Prism 7.0 software.
The test system of experiment [5] is BRD4. Also on record: method as in Boi et al., 2015. Particulars: BRD4 inhibitor; ref Boi et al., 2015; read-out: IC50 value as reported; cited from earlier work.
A further experiment concerns CAKI-2 cells. Kind of experiment: MTT cytotoxicity assay. Type of experiment: cell-based, human. The note with it: Homo sapiens, CAKI-2, cell growth, 48 h treatment, read-out: IC50 (μM) ± SD CAKI-2. How it is done:
Human normal renal cortical proximal tubular epithelial cell line HK-2 and human renal carcinoma cell lines CAKI-2, SLR-23, 769-P, A704 and RCC4 were previously purchased from the American Type Culture Collection (ATCC, Manassas, VA, USA) or the European Collection of Cell Cultures (ECACC, Salisbury, United Kingdom). HK2, A704, and RCC4 cells were maintained in high glucose DMEM supplemented with 10% FBS and 1% penicillin/streptomycin. SLR-23 and […] cells were cultured in RPMI-1640 medium with 10% FBS and 1% penicillin/streptomycin. CAKI-2 cells were maintained in McCoy’s 5A medium supplemented with 10% FBS and 1% penicillin/streptomycin. All the cell lines were cultured at 37°C in a humidified atmosphere of 5% CO2 and 95% air.
The effect of hit compounds on cytotoxicity was determined as previously reported ([Ding et al., 2020]). In brief, cells treated with the tested compounds were added with MTT reagent to form formazan crystals, and then the optical density (OD) values at 570 nm were determined after the crystals were dissolved in DMSO. […] Next, the values of IC50 of the selected compounds against more RCC cell lines were determined. The 5 × 10^3 cells in 100 μL culture medium were injected into each well of a 96-well plate and cultured overnight. Add different concentrations of compounds and incubate for 48 h. Then 100 μL of MTT (0.5 mg/mL) solution was added to the 96-well plate and maintained at 37°C for 4 h. Finally, 200 μL of DMSO was added and shaken for 10 min. The OD values at 570 nm were determined by a Synergy 4 microplate reader.
For orientation: Formazan colour is commonly taken as a measure of viable cells.

T1 sequence (P40763 whole entry): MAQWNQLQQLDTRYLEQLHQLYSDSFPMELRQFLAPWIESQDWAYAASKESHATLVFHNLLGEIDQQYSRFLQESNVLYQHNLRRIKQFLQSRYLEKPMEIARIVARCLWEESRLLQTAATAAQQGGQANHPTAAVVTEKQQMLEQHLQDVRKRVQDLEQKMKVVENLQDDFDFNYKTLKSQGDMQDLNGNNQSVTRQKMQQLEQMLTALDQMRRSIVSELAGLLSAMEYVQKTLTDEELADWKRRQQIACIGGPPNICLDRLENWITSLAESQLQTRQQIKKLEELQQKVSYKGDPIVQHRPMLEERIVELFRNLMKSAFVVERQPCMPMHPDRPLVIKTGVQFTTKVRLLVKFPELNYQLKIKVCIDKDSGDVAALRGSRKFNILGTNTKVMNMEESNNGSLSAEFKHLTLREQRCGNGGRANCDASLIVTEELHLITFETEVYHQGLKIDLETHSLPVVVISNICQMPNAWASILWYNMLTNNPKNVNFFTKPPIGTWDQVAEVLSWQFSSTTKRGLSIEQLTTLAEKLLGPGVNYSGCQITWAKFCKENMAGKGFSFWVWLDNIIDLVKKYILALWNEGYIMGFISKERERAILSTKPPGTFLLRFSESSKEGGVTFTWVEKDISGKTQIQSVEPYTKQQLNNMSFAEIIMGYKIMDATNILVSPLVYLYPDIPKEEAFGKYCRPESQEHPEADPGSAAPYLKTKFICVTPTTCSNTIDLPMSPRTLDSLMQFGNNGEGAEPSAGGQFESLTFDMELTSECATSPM

For the compound `CCS(=O)(=O)Cc1cnc(Oc2c(F)cc(F)cc2OCC2CCC(COc3ccc(C=Cc4cc(OC)cc(OC)c4)cc3)N2)c(-c2cc(C)c3c(=O)[nH]ccn23)c1` (stereo not shown) [BST-5], the Kd (in general, the free concentration of one partner at which half of the binding sites on the other are occupied at equilibrium, for simple one-to-one binding) at STAT3 [1] was determined as 13.7 ± 0.98 nM; at BRD4 [2], 9.72 ± 0.84 nM. In addition, the IC50 (usually the concentration that gives 50% inhibition) on STAT3 [3] is 17.8 ± 1.24 nM; at BRD4 [4], 10.1 ± 1.15 nM.

For `CCS(=O)(=O)Cc1cnc(Oc2c(F)cc(F)cc2OC[C@@H]2CCC[C@H](COc3ccc(/C=C/c4cc(OC)cc(OC)c4)cc3)N2)c(-c2cc(C)c3c(=O)[nH]ccn23)c1` [BST-3], the Kd came to 8.42 ± 0.38 nM on STAT3 [1] and 5.37 ± 0.49 nM at BRD4 [2]. The IC50 on STAT3 [3] turned out to be 11.3 ± 0.95 nM; at BRD4 [4], 7.09 ± 0.53 nM.

`CCS(=O)(=O)Cc1cnc(Oc2c(F)cc(F)cc2O/C=C\CC(=O)COc2ccc(/C=C/c3cc(OC)cc(OC)c3)cc2)c(-c2cc(C)c3c(=O)[nH]ccn23)c1` [BST-2]: the results for the Kd on STAT3 [1] and on BRD4 [2] were 28.7 ± 3.71 nM and 3.62 ± 0.25 nM, respectively. The IC50 came out at 27.2 ± 2.82 nM at STAT3 [3] and 4.64 ± 0.17 nM at BRD4 [4].

In the case of `Cc1sc2c(c1C)C(c1ccc(Cl)cc1)=N[C@@H](CC(=O)Nc1ccc(O)cc1)c1nnc(C)n1-2` [OTX-015], the IC50 with BRD4 [5] is approximately 92 nM.

Consider `COc1cc(OC)c2c(=O)[nH]c(-c3cc(C)c(OCCO)c(C)c3)nc2c1` [RVX-208, reference compound], for which the IC50 with CAKI-2 cells came to 3.71 ± 0.42 µM. In addition, the “STAT3 (IC50, nM)” value on STAT3 [3] was “no inhibition”.

As for `CCS(=O)(=O)Cc1cnc(Oc2c(F)cc(F)cc2OCc2nc(COc3ccc(/C=C/c4cc(OC)cc(OC)c4)cc3)c[nH]2)c(-c2cc(C)c3c(=O)[nH]ccn23)c1` [BST-1], the Kd at STAT3 [1] turned out to be 16.4 ± 0.95 nM; on BRD4 [2], 12.3 ± 1.16 nM. Also, the results for the IC50 at STAT3 [3] and on BRD4 [4] were 20.8 ± 1.94 nM and 15.7 ± 1.31 nM, respectively.
